Assay results published in ChEMBL document CHEMBL4665853, “Inhibition of Macrophage Migration Inhibitory Factor by a Chimera of Two Allosteric Binders” (ACS Med Chem Lett, 2020).

Columns and labels:
[1] = target: T1, Macrophage migration inhibitory factor (Homo sapiens, UniProt P14174); assay: Non-competitive inhibition of recombinant human MIF assessed as inhibition constant using varying levels of p-hydroxyphenylpyruvate as substrate by Lineweaver-Burk plot analysis
T1 sequence (P14174 whole entry): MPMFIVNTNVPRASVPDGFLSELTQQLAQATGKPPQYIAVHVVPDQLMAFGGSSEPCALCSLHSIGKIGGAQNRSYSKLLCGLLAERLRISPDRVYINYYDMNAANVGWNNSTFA

[2] = target: T1, Macrophage migration inhibitory factor; assay: Binding affinity to recombinant biotinylated human MIF expressed in Escherichia coli BL21 DE3 by surface plasmon resonance assay
[3] = target: T1, Macrophage migration inhibitory factor; assay: Inhibition of recombinant biotinylated human MIF tautomerase activity expressed in Escherichia coli BL21 DE3 assessed as reduction in tautomerization of keto-p-hydroxyphenylpyruvate using keto-p-hydroxyphenylpyrivate as substrate preincubated for 30 mins followed by substrate addition by HTS assay
[4] = target: T1, Macrophage migration inhibitory factor; assay: Inhibition of recombinant human MIF expressed in Escherichia coli BL21 DE3 binding to recombinant soluble human CD74 receptor ectodomain (73 to 232 residues) expressed in Escherichia coli BL21 (DE3) pLysS using p-nitrophenyl phosphate as substrate by ELISA
[5] = target: T1, Macrophage migration inhibitory factor; assay: Inhibition of MIF-induced IL-8 secretion in human foreskin fibroblasts incubated for 30 mins by ELISA

Ki [1]	Kd [2]	IC50 [3]	IC50 [4]	IC50 [5]	SMILES
30.9 µM	1.4 µM	–	–	–	CC(C)C(=O)c1c(C(C)C)nn2ccccc12 [IBUDILAST]
–	6.86 µM	7.59 µM	0.93 µM	4.42 µM	CC(C)C(=O)c1c(Cc2cccc(/N=N/c3ccc4c(S(=O)(=O)O)cc(S(=O)(=O)O)c(N)c4c3O)c2)nn2ccccc12
